Key:
aged C57Bl/6JRj mice = assay: Transplantation of MuSCs from myriocin treated donors into cardiotoxin-injured aged C57Bl/6JRj recipients; assay type: in vivo, mouse
Excerpt: Decline in tissue regenerative potential is a major hallmark of mammalian aging, including skeletal muscle. It was next asked the question whether myriocin treatment induces functional improvement of MuSCs, boosting their regenerative capacity. MuSCs from aged mice treated or untreated with myriocin for 5 months were isolated, and transplanted into tibialis anterior (TA) muscles of recipient mice. The recipient mice were either aged (20-month-old) C57Bl/6JRj or aged (1-year-old) mdx mice, a mouse model of Duchenne muscular dystrophy lacking dystrophin protein (FIG. 4a). Before MuSC transplantation, injury was induced by cardiotoxin injection to TA of all recipient mice. […] At both 7 and 14 days after transplantation the inflammatory area was also smaller (FIG. 12a-b) in mdx recipients of MuSCs isolated from myriocin treated mice. […] Thus, transplantation of MuSCs derived from myriocin treated donors induce major morphological improvements following cardiotoxin-induced muscle injury.
To test whether the functional improvement of MuSCs upon myriocin treatment also translates into better muscle function of recipient mice, tests of muscle function were performed before and 7 days after MuSC transplantation.
Endurance running test. The exercise regimen on a treadmill commenced at a speed of 9 cm/s. As the mice were aged, an inclination of 0 degrees was used. Mice were considered to be exhausted, and removed from the treadmill if they received 7 or more shocks (0.2 mA) per minute for two consecutive minutes. The distance traveled and time before exhaustion were registered as maximal running distance and time.
Grip strength. Muscle strength was assessed by grip strength test. The grip strength of each mouse was measured on a pulldown grid assembly connected to a grip strength meter (Columbus Instruments). The mouse was drawn along a straight line parallel to the grip, providing peak force. The experiment was repeated three times, and the highest value was included in the analysis.
Rotarod test. The rotarod test measures muscle strength, coordination, and endurance. Mice were left undisturbed in the room for 30 min. The speed of the rotating cylinder (rotarod) increased from 0 to 40 rpm in 5 min. Each mouse had 3 trials per day for 3 consecutive days. The latency and speed the mouse reached it passive rotation or fall from the rotor was recorded, and the latency and speed of the best trial of the second day is presented.
Cardiotoxin-induced muscle damage and MuSC transplantation. MuSCs were transplanted from donor mice to recipient mice. The donor mice were aged male C57Bl/6JRj mice, whose treatment with myriocin was started at the age of 18 months. The recipient mice were either aged (18-month-old) male C57Bl/6JRj mice or 1-year-old male mdx mice. 50 μL of 20 μM Naje Mossambica mossambica cardiotoxin (Sigma) was injected intramuscularly into the tibialis anterior (TA) muscle of recipient mice before transplantation. 24 h after CTX injection, equal number (1500) of freshly isolated MuSCs from donor mice were injected intramuscularly into the TA muscle. Recipient mice were sacrificed at 7 and 14 days after transplantation.
Histology. TA muscles were harvested from anesthetized mice, and immediately embedded in Thermo Scientific™ Shandon™ Cryomatrix™ and frozen in isopentane, cooled in liquid nitrogen, for 1 min before being transferred to dry ice and stored at −80° C. 8 μm cryosections were incubated in 4% PFA for 15 min, washed three times for 10 min with PBS, incubated for antigen retrieval in pH 6.0 citrate buffer for 10 min at 95° C. (for PAX7 antibody), counterstained with DAPI, laminin (1:200, Sigma), PAX7 (1:200, DSHB, University of Iowa), dystrophin (1:100, Spring Bioscience) or eMyHC (1:50, DSHB, University of Iowa), coupled with Alexa-488 or Alexa-568 fluorochromes (Life Technology) and mounted with Dako Mounting Medium. Microscopy images of fluorescence from muscle fibers were analyzed using the ImageJ software. […]

human primary myoblasts = assay: Human primary myoblast differentiation; assay type: cell-based; conditions: 30 μM myriocin vs DMSO
Procedure: Cell culture and cell transfection. The C2C12 mouse myoblast cell line was obtained from the American Type Culture Collection (CRL-1772™). C2C12 cells or clones were cultured in growth medium consisting of Dulbecco's modified Eagle's medium (Gibco, 41966-029), 20% Fetal Bovine Serum (Gibco, 10270-106) and 100 U/mL penicillin and […] streptomycin (Gibco, 15140-122). To induce differentiation, FBS was substituted with 2% horse serum (Gibco, 16050-122). Trypsin-EDTA 0.05% (GIBCO, 25300-062) was used to detach cells. Human skeletal muscle cells were obtained from Lonza (SkMC, #CC-2561) and cultured in growth medium consisting of DMEM/F12 (Gibco, 10565018), 20% Fetal Bovine Serum (Gibco, 10270-106) and 100 U/mL penicillin and […] streptomycin (Gibco, 15140-122). To induce differentiation, FBS was reduced to 2% and kept in culture. All cells were maintained at 37° C. with 5% CO2. Cell transfections were done using TransiT (Mirus) according to the manufacturer's protocol with a 3:1 ratio of transfection agent to DNA. […]
Immunocytochemistry. […] The immunofluorescence images were acquired using either fluorescence or confocal microscopy. The myofusion index was calculated as the ratio of nuclei within myotubes to total nuclei. The myotube diameter was measured for 8 myotubes per image using ImageJ. Myotube area was calculated as the total area covered by myotubes.

[1] = aged C57Bl/6JRj recipients of MuSCs from myriocin treated donors, 7 days
[2] = aged recipients of MuSCs from myriocin treated mice, 7 days after transplantation, change relative to baseline

In the case of `CCCCCCC(=O)CCCCCCC=CCC(O)C(O)C(N)(CO)C(=O)O` (centres unmarked) [myriocin, 2-Amino-3,4-dihydroxy-2-(hydroxymethyl)-14-oxoicos-6-enoic acid], the “inflammatory area of TA” value (aged C57Bl/6JRj mice; aged C57Bl/6JRj recipients of MuSCs from myriocin treated donors, 7 and 14 days after injury) was “smaller”, the “count of PAX7+ cells per field and per section” value (aged C57Bl/6JRj mice; [1]) was “increased count” and the “embryonic myosin heavy chain (eMyHC) positive area” value (aged C57Bl/6JRj mice; [1]) was “higher”. For the same compound, the “exercise capacity (maximal running distance)” value (aged C57Bl/6JRj mice; [2]) was “improved”, the grip strength (aged C57Bl/6JRj mice; [2]) was “improved” and the “latency in rotarod test” value (aged C57Bl/6JRj mice; [2]) was “increased latency”. For the same compound, the human myoblast differentiation (human primary myoblasts) was “accelerated” and the myotube area (human primary myoblasts) was “larger”.
